{
  "source": "patent US8975277B2",
  "about": "“2,3-dihydrofuro[2,3-c]pyridin-2-ylpiperidine derivatives” (Boehringer Ingelheim International GmbH, priority 2012, dated 2015)",
  "data": [
    {"target": "T1, human GPR119 (Homo sapiens, UniProt Q8TDV5)", "T1 construct": "expression vector for human GPR119 cDNA (Acc. No. NP_848566); expressed in transfected cells", "T1 sequence (Q8TDV5 1-335)": "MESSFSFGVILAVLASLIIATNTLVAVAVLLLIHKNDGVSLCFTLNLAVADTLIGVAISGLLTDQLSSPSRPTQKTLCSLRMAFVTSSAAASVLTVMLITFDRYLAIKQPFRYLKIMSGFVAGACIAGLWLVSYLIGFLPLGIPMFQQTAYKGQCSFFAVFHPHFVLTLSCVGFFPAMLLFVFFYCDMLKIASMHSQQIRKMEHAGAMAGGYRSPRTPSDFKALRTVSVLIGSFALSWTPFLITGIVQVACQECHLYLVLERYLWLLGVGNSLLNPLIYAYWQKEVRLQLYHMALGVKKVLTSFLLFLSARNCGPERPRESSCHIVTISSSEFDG", "assay": "AlphaScreen cAMP assay, activation of GPR119 in MIN6 cells stably transfected with human GPR119", "type": "cell-based", "conditions": "Min-6/hGPR119 cells, intracellular cAMP, 45 minutes incubation at room temperature", "procedure": "The compounds of the invention modulate the activity of the G-protein-coupled receptor GPR119. The effect of the compounds on the activation of GPR119 and on the stimulation of intracellular cAMP concentration is determined using the AlphaScreen cAMP Assay Kit (Cat.No.#6760625R) made by Perkin Elmer.\nMIN6 cells [Miyazaki J et al., Endocrinology. 1990 July; 127(1):126-32] are stably transfected with an expression vector for human GPR119 cDNA (Acc. No. NP_848566). Min-6/hGPR119 cells are cultured in DMEM, 10% FBS, 50 μM β-mercaptoethanol, 0.3 mg/mL Geniticin, 2 mM GlutaMAX at 37° C., 5% CO2. For the assay, the cells are seeded in Optiplates (white, 384-well, 160W-barcoded, TC, sterile with lid, Cat.No.#6007688 (Perkin Elmer); 10000 cells/well; 50 μL). The plates covered with lids are then incubated for 24 hours at 37° C., 5% CO2. After the medium is aspirated from the wells completely, 10 μl of the test compound are added, the compounds are diluted using stimulating buffer (140 mM NaCl, 3.6 mM KCl, 0.5 mM NaH2PO4, 0.5 mM MgSO4, 1.5 mM CaCl2, 10 mM Hepes, 5 mM NaHCO3; pH 7.4. 0.5 mM IBMX and 0.1% BSA, the final DMSO concentration is 1%). After 45 minutes incubation at room temperature (approx. 20° C.), the cAMP concentrations are determined using the AlphaScreen cAMP Assay Kit (Cat.No.#6760625R from PerkinElmer).", "units": {"EC50": "nM"}, "values": [
      {"molecule": "C[C@H](OC(=O)N1CCC([C@@]2(C)Cc3cc(-c4ccc(S(C)(=O)=O)cc4)ncc3O2)CC1)C(F)(F)F", "note": "[Example 9, (S)-4-[(R)-5-(4-Methanesulfonyl-phenyl)-2-methyl-2,3-dihydro-furo[2,3-c]pyridin-2-yl]-piperidine-1-carboxylic acid 2,2,2-trifluoro-1-methyl-ethyl ester]", "EC50": 1},
      {"molecule": "C[C@H](OC(=O)N1CCC([C@H]2Cc3cc(-c4ccc(S(C)(=O)=O)cc4)ncc3O2)CC1)C(F)(F)F", "note": "[Example 1, (S)-4-[(R)-5-(4-Methanesulfonyl-phenyl)-2,3-dihydro-furo[2,3-c]pyridin-2-yl]-piperidine-1-carboxylic acid 2,2,2-trifluoro-1-methyl-ethyl ester]", "EC50": 5},
      {"molecule": "C[C@@H](OC(=O)N1CCC([C@@]2(C)Cc3cc(-c4ccc(S(C)(=O)=O)cc4)ncc3O2)CC1)C(F)(F)F", "note": "[Example 8, (R)-4-[(R)-5-(4-Methanesulfonyl-phenyl)-2-methyl-2,3-dihydro-furo[2,3-c]pyridin-2-yl]-piperidine-1-carboxylic acid 2,2,2-trifluoro-1-methyl-ethyl ester]", "EC50": 4},
      {"molecule": "C[C@H](OC(=O)N1CCC([C@H]2Cc3cc(C4=CCN(S(C)(=O)=O)CC4)ncc3O2)CC1)C(F)(F)F", "note": "[Example 4, (S)-4-[(R)-5-(1-Methanesulfonyl-1,2,3,6-tetrahydro-pyridin-4-yl)-2,3-dihydro-furo[2,3-c]pyridin-2-yl]-piperidine-1-carboxylic acid 2,2,2-trifluoro-1-methyl-ethyl ester]", "EC50": 5},
      {"molecule": "C[C@H](OC(=O)N1CCC([C@]2(C)Cc3cc(C4=CCN(S(C)(=O)=O)CC4)ncc3O2)CC1)C(F)(F)F", "note": "[Example 5, (S)-4-[(S)-5-(1-Methanesulfonyl-1,2,3,6-tetrahydro-pyridin-4-yl)-2-methyl-2,3-dihydro-furo[2,3-c]pyridin-2-yl]-piperidine-1-carboxylic acid 2,2,2-trifluoro-1-methyl-ethyl ester]", "EC50": 109},
      {"molecule": "C[C@@H](OC(=O)N1CCC([C@H]2Cc3cc(-c4ccc(S(C)(=O)=O)cc4)ncc3O2)CC1)C(F)(F)F", "note": "[Example 2, (R)-4-[(R)-5-(4-Methanesulfonyl-phenyl)-2,3-dihydro-furo[2,3-c]pyridin-2-yl]-piperidine-1-carboxylic acid 2,2,2-trifluoro-1-methyl-ethyl ester]", "EC50": 6},
      {"molecule": "C[C@@H](OC(=O)N1CCC([C@@]2(C)Cc3cc(C4=CCN(S(C)(=O)=O)CC4)ncc3O2)CC1)C(F)(F)F", "note": "[Example 6, (R)-4-[(R)-5-(1-Methanesulfonyl-1,2,3,6-tetrahydro-pyridin-4-yl)-2-methyl-2,3-dihydro-furo[2,3-c]pyridin-2-yl]-piperidine-1-carboxylic acid 2,2,2-trifluoro-1-methyl-ethyl ester]", "EC50": 7},
      {"molecule": "C[C@H](OC(=O)N1CCC([C@@]2(C)Cc3cc(C4=CCN(S(C)(=O)=O)CC4)ncc3O2)CC1)C(F)(F)F", "note": "[Example 7, (S)-4-[(R)-5-(1-Methanesulfonyl-1,2,3,6-tetrahydro-pyridin-4-yl)-2-methyl-2,3-dihydro-furo[2,3-c]pyridin-2-yl]-piperidine-1-carboxylic acid 2,2,2-trifluoro-1-methyl-ethyl ester]", "EC50": 3},
      {"molecule": "C[C@@H](OC(=O)N1CCC([C@H]2Cc3cc(C4=CCN(S(C)(=O)=O)CC4)ncc3O2)CC1)C(F)(F)F", "note": "[Example 3, (R)-4-[(R)-5-(1-Methanesulfonyl-1,2,3,6-tetrahydro-pyridin-4-yl)-2,3-dihydro-furo[2,3-c]pyridin-2-yl]-piperidine-1-carboxylic acid 2,2,2-trifluoro-1-methyl-ethyl ester]", "EC50": 6}
    ]}
  ]
}
